The results in this text go back to patent US10034836B2, “Formulations of guanylate cyclase C agonists and methods of use” (SYNERGY PHARMACEUTICALS, INC., priority 2008, dated 2018).

Series [1] is classed as in vitro ADME. The protocol: FIG. 1B: Schematic representation of HPLC chromatographic analyses of SP-304 samples after incubation with SGF for 0 and 120 min, respectively. The arrows show the elution position of SP-304.
(§1) The stability of SP-304 in the presence of simulated gastric fluid (SGF) was determined by biological activity measurements and HPLC analyses (FIGS. 1A & 1B). SP-304 (final concentration of 8.5 mg/ml) was incubated in SGF (Proteose peptone (8.3 g/liter; Difco), D-Glucose (3.5 g/liter; Sigma), NaCl (2.05 g/liter; Sigma), KH2PO4 (0.6 g/liter; Sigma), CaCl2 (0.11 g/liter), KCl (0.37 g/liter; Sigma), Porcine bile (final 1× concentration 0.05 g/liter; Sigma) in PBS, Lysozyme (final 1× concentration 0.10 g/liter; Sigma) in PBS, Pepsin (final 1× concentration 0.0133 g/liter; Sigma) in PBS). SGF was made on the day of the experiment and the pH was adjusted to 2.0±0.1 using HCl or NaOH as necessary. After the pH adjustment, SGF is filter sterilized with 0.22 μm membrane filters. SP-304 (final concentration of 8.5 mg/ml) was incubated in SGF at 37° C. for 0, 15, 30, 45, 60 and 120 min, respectively, in triplicate aliquots. Following incubations, samples were snap frozen in dry ice then stored in a −80° C. freezer until assayed in duplicate.
Here, aliquots of the two samples were analyzed by HPLC using a previously developed method for analyzing SP-304 peptide. […]

Series [2] is classed as in vitro ADME. As to conditions: pH 2. The protocol: FIG. 1A: Biological activity of SP-304 incubated for varying lengths of time in simulated gastric fluid (SGF). The biological activity of SP-304 was determined by measuring its ability to stimulate cGMP synthesis in T84 cells. Samples incubated for 0, 15, 30, 60, 90 and 120 minutes, respectively, were collected and analyzed for biological activity—with activity of the 0 min sample defined as 100% biological activity. The activities of the other samples are shown as percentage activity relative to the 0 min activity sample. Data points shown are the average of triplicate measurements±SD.
as §1, with “SP-304 (final concentration of 8.5 mg/ml) was incubated in SGF at 37° C. for 0, 15, 30, 45, 60 and 120 min, respectively, in triplicate aliquots. Following incubations, samples were snap frozen in dry ice then stored in a −80° C. freezer until assayed in duplicate.” left out

Where a SMILES comes first, the peptide text is derived from it. Bridges are numbered along the chain shown (N, C = ends).

On to `CC(C)C[C@H](NC(=O)[C@@H]1CSSC[C@@H]2NC(=O)[C@H](CC(C)C)NC(=O)[C@H](CCC(=O)O)NC(=O)[C@@H](NC(=O)[C@H](CCC(=O)O)NC(=O)[C@H](CC(=O)O)NC(=O)[C@@H](N)CC(N)=O)CSSC[C@H](NC(=O)[C@H](C)NC(=O)[C@H](C(C)C)NC(=O)[C@H](CC(N)=O)NC(=O)[C@H](C(C)C)NC2=O)C(=O)N[C@@H]([C@@H](C)O)C(=O)NCC(=O)N1)C(=O)O` [SP-304, Asn^1-Asp^2-Glu^3-Cys^4-Glu^5-Leu^6-Cys^7-Val^8-Asn^9-Val^10-Ala^11-Cys^12-Thr^13-Gly^14-Cys^15-Leu^16] (H-NDECELCVNVACTGCL-OH; disulfide 4-12, 7-15), for which, in series [1], the “major HPLC peak following incubation with SGF” value is recorded as “did not change”. Moreover, in series [2], the “activity after exposure to the acidic pH of the SGF” value is given as “unaltered” and the “biological activity after incubation with SGF (breakdown in SGF)” value was “resistant to breakdown in SGF”.
